B1: Anti-CD47 VHH: anti-CD47 nanobody, SEQ ID NO: 2, 6His-tagged, expressed in E. coli (protein)
VHH: QVQLVESGGGLVEPGGSLRLSCAASGIIFKINDMGWYRQAPGKRREWVAASTGGDEAIYRDSVKDRFTISRDAKNSVFLQMNSLKPEDTAVYYCTAVISTDRDGTEWRRYWGQGTQVTVSS
modifications: 6His tag
B2: Anti-PD-L1 VHH: anti-PD-L1 nanobody, SEQ ID NO: 1, 6His-tagged, expressed in E. coli (protein)
VHH: QVQLQESGGGLVQTGGSLRLSCAASGSTVSSSMMAWWRQTPGNQRELVALVASGNNTNYVDSVKGRFTVSRDNAKNTMYLQMNSLKPEDTAVYYCRILSVNGIWYWGQGTQVTVSS
modifications: 6His tag; Aritifical sequence

Tests used:
[1] = test system: murine colorectal cancer cell CT26; experiment: Subcutaneous graft tumors of murine colorectal cancer cell CT26 in BalB/C mice; format: in vivo, mouse; settings: intraperitoneal once a day for 21 days; for Average tumor weight (g): doses of Table 1, n = 10, mean ± SD; for Average tumor suppression rate (%): doses of Table 1, vs negative control
Experimental: (§1) Specie and strain: BalB/C ordinary mice and C57BL/6 ordinary mice.
(§2) Route of administration: intraperitoneal injection.
(§3) Dose of the novel multi-target immune complex: 200 μL/each;
(§4) Dosing frequency: once a day for 21 consecutive days;
(§5) Number of animals per group: 10.
(§6) Used herein are mouse colorectal cancer cell line CT26, mouse breast cancer cell line 4T1 and mouse melanoma cell line B16F10, which were purchased from the cell bank of Chinese Academy of Sciences.
(§7) Cancer cells were cultured, passaged, collected at the logarithmic phase of cells, and prepared into a cell suspension at a concentration of (1.0×10^7) per ml. Mice were injected with 0.2 ml of the cell suspension at the axilla of the right forelimb (cell number 2.0×10^6 cells/each), and tumorigenicity was successful in about 8 days.
(§8) These mice were randomly divided into 11 groups equally, namely, group A: negative control group (PBS group), group B: positive control (cGAMP) group (dose: 10 mg/kg), group C: ENPP1-YZ1 group (dose: 5 mg/kg), group D: ENPP1-YZ2 group (dose: 5 mg/kg), group E: anti-PD-L1 VHH group (dose: 2.5 mg/kg), group F: anti-CD47 VHH group (dose: 2.5 mg/kg), group G: complex I group, group H: complex II group, group I: complex III group, group J: complex IV group, and group K: complex V group. The mice were administered once a day for 21 days. After 21 days, the mice were executed, the tumor weight was weighed, and the tumor inhibition rate was calculated by [1-average tumor weight of experimental groups (groups B, C, D, E, F, G, H, I, J, and K)/average tumor weight of group A]×100%.
(§9) The mouse colorectal cancer cell line CT26 was prepared and injected into BalB/C ordinary mice. The mouse breast cancer cell line 4T1 was prepared and injected into BalB/C ordinary mice. The melanoma cell line B16F0 was prepared and injected into C57BL/6 ordinary mice. The anti-tumor effects of different drugs were observed.
(§10) Data were expressed as x±s and processed using a SPSS 10.0 software. One-way ANOVA test was used to compare the significance of the differences in tumor weight between groups, with a significance level a=0.05.

[2] = test system: mouse breast cancer cell line 4T1; experiment: Subcutaneous graft tumors of mouse breast cancer cell line 4T1 in BalB/C mice, with lung metastasis nodules; format: in vivo; settings: for Average tumor weight (g) / Average tumor suppression rate (%) / Number of metastatic lung nodules: 4T1 in BalB/C mice; for Average tumor weight (g) / Average tumor suppression rate (%): intraperitoneal once a day for 21 days; for Average tumor weight (g): doses of Table 1, n = 10, mean ± SD; for Average tumor suppression rate (%): doses of Table 1, vs negative control; for Number of metastatic lung nodules: lungs after 21 days of dosing, negative control 35; for number of lung tumor nodules compared with the model group (in words): 4T1 breast cancer lung metastasis, lungs fixed with 4% paraformaldehyde
Experimental: as §1, §2, §3, §4, §5, §6, §7, §8, §9, §10
Dissections were performed on mice that had been executed for the 4T1 breast cancer study, where the lung tissues were carefully peeled off and photographed for observation after fixation with 4% paraformaldehyde. It could be clearly seen that the lungs of the mice in the model group were black and existed multiple white tumor nodules with various sizes on the surface. […] By statistical analysis of the tumor nodules in the lung tissues of mice, the results of the efficacy of inhibiting the lung metastasis of breast cancer cells were shown in Table 3.

[3] = test system: mouse melanoma cell line B16F0; experiment: Subcutaneous graft tumors of mouse melanoma cell line B16F0 in C57BL/6 mice; format: in vivo; settings: intraperitoneal once a day for 21 days; for Average tumor weight (g): doses of Table 1, n = 10, mean ± SD; for Average tumor suppression rate (%): doses of Table 1, vs negative control
Experimental: as §1, §2, §3, §4, §5, §6, §7, §8, §9, §10

| Molecule | Average tumor weight (g) [1] | Average tumor suppression rate (%) [1] | Average tumor weight (g) [2] | Average tumor suppression rate (%) [2] | Number of metastatic lung nodules [2] | Average tumor weight (g) [3] | Average tumor suppression rate (%) [3] | number of lung tumor nodules compared with the model group (in words) [2] |
| --- | --- | --- | --- | --- | --- | --- | --- | --- |
| COc1ccc2[nH]c(SCc3nc4cc(F)ccc4c(=O)[nH]3)nc2n1 [ENPP1-YZ1, 2-[(5-methoxy-(imidazo[4,5-B]pyridinyl)-2-thio)methyl]-7-fluoroquinazoline-4(3H)-one] | 0.816 ± 0.203 (g) | 63.9% | 0.898 ± 0.136 (g) | 60.5% | 21 | 0.943 ± 0.208 (g) | 60.5% |  |
| 2-[(4-methyl-(thiazolo[4,5-B]pyridinyl)-2-thio)methyl]-7-fluoro quinazoline-4(3H)-one [ENPP1-YZ2] | 0.805 ± 0.218 (g) | 64.5% | 0.852 ± 0.223 (g) | 62.5% | 20 | 0.926 ± 0.227 (g) | 61.2% |  |
| Nc1nc2c(ncn2[C@@H]2O[C@@H]3COP(=O)(O)O[C@H]4[C@@H](O)[C@H](n5cnc6c(N)ncnc65)O[C@@H]4COP(=O)(O)O[C@@H]2[C@@H]3O)c(=O)[nH]1 [cGAMP, cyclic dinucleotide 2′,3′-cGAMP, reference compound] | 0.706 ± 0.152 (g) | 68.8% | 0.775 ± 0.221 (g) | 65.9% | 12 | 0.808 ± 0.137 (g) | 66.1% | a decrease in the number of tumor nodules |
| B1 | 1.807 ± 0.187 (g) | 20.2% | 1.805 ± 0.176 (g) | 20.2% | 25 | 1.809 ± 0.217 (g) | 24.2% | a small decrease in the number of tumor nodules |
| B2 | 1.735 ± 0.206 (g) | 23.4% | 1.752 ± 0.214 (g) | 22.9% | 27 | 1.758 ± 0.212 (g) | 26.3% | a small decrease in the number of tumor nodules |

Source: patent US20240238201A1, “LIPOSOME CARRIER-BASED MULTI-TARGET COMPLEX, DRUG DELIVERY PLATFORM CONTAINING THE SAME, AND APPLICATION THEREOF” (HANGZHOU XINGAO BIOTECHNOLOGY CO., LTD., priority 2021, published 2024)
